Data as given in patent US4022912A, “Use of 1-decarboxy-1-hydroxymethyl-PGE1 in therapeutic bronchodilation” (priority 1976, dated 1977).
Entries after “also recorded” stand apart in the source; their conditions may differ. Where two headings read alike, the source gives them in different places.

Assays:
[1] = tested on: mobilization of free fatty acids induced by epinephrine; conditions: U.S. Pat. No. 3,636,120 (Pike); cited from earlier work
[2] = tested on: Guinea Pig Tracheal Tissue; experiment: Relaxation of guinea pig tracheal tissue in vitro; type: cell-based; conditions: for Relaxation (×80) (± S.E.): Table B, standard error in parentheses
Protocol: Male guinea pigs weighing 200-500 g were killed by a blow on the head. A 20 mm length of trachea was dissected from each of the animals, transferred to a petri dish containing Krebs' solution aerated with 95% O2 and 5% CO2 at 37° C., and cut longitudinally opposite the tracheal muscle. The tissue was then cut transversely three quarters of the distance across; a second cut in the opposite direction again three quarters of the distance across the tissue was made, and the procedure was continued for the whole tissue. The ends of the trachea were pulled to form a zig-zag shaped strip. The tracheal strips used in the experiment were approximately 30 mm when extended under 0.25-0.5 g load in a tissue bath. Cotton thread was tied to one end of the tissues, and linen thread to the other. The tissues were attached via the linen thread to a glass hook in a 5 ml isolated tissue bath containing Krebs' solution at 37° C. aerated with a mixture of 95% O2 and 5% CO2. The opposite ends were attached via cotton thread to an isotonic transducer. The load on the transducer lever was small, usually 0.3 g, with a range of 0.25-0.5 g; and the magnification high, 80-fold using an appropriate twin-channel pen recorder. A minimum of thirty minutes was allowed before applying a drug to the tissues. Drugs were then applied (in volumes of 0.5 ml) at thirty minute intervals, being in contact with the tissue for five minutes followed by an overflow washout time of twenty seconds.

[3] = tested on: Convulsions Induced by Inhaled Histamine; experiment: Delay of convulsions induced by inhaled histamine in conscious guinea pigs; type: in vivo, guinea pig
Protocol: Conscious male albino guinea pigs (Dunkin-Hartley strain) weighing 200-300 g were placed (singly) in a 5-liter transparent chamber for 1 minute and subjected to an aerosol of vehicle or test drug in solution, plus histamine (1% w/v).
The time from the beginning of the administration of the aerosol to the start of the first convulsion (when the guinea pig is immediately removed from the aerosol) is the pre-convulsion time. Twenty-four hours later the general procedure was repeated. Guinea pigs treated with the test drug on the first day were treated with vehicle on the second day and vice versa in a cross-over design. Maximum time allowed in the aerosol was 10 minutes. An ultrasonic humidifier was used to produce the aerosol.

Guinea Pig Ileum = experiment: Antagonism to PGE1 in the guinea pig ileum in vitro; type: cell-based; conditions: for antagonism of the effects of PGE1 in the guinea pig ileum: in vitro
Protocol: Preparations were placed in tissue chambers filled with Ringer-Tyrode solution at 37° C., bubbled with a mixture of 95% O2 and 5% CO2, and arranged for isometric recording with force displacement transducers. The segments were stretched to an initial tension of 1 g, and responses to a test concentration of acetylcholine (0.1 mcg/ml) were obtained every 5 minutes until two similar responses were observed (usually after four administrations). Responses to PGE1
(0.1 mcg/ml) were obtained and recorded at 5 minute intervals before and after 100 seconds of incubation with 0.1 and 1.0 mcg/ml of 1-decarboxy-1-hydroxymethyl-PGE1. Any direct contractile effect of the test compound was recorded and evaluated in terms of mean values in grams of tension developed at each concentration. Responses to the agonist observed after incubation with the test compound were expressed as percent of control responses. All drugs were administered in a volume of 0.1 ml.

platelet aggregation = conditions: U.S. Pat. No. 3,636,120 (Pike); cited from earlier work
Conscious Cat = experiment: Tracheobronchial irritancy (coughing) in conscious cats after inhalation; type: in vivo; conditions: for tracheobronchial irritancy compared with PGE1: inhalation, equivalent concentrations/dosages
Protocol: A test drug was given at concentrations from 0.01 μg/ml (up to 100 μg/ml) at two hour intervals exposing each cat for up to 10 minutes each time. If coughing occurred no further challenge was given that day. Two to three days later the other test substance was given. The aerosol was delivered from an ultrasonic nebulizer via rubber tubing connected to a face mask fitted to the cat. The animal was mildly restrained. Coughing was noted by an observer and also monitored by a microphone connected to a tape recorder.

[4] = tested on: Histamine-Induced Bronchoconstriction; experiment: Inhibition of histamine-induced bronchoconstriction in the anesthetized guinea pig in vivo by intravenous administration; conditions: for ED50: Cavia porcellus, iv, i.v. 15 seconds prior to histamine
Protocol: (§1) Male albino guinea pigs (400-600 g; Dunkin-Hartley Strain) were anesthetized with pentobarbitone sodium (60 mg/kg intraperitoneally).
(§2) Trachea, external jugular vein and carotid artery were cannulated for recording ventilation, intravenous administration of drugs, and blood pressure respectively. The animals were artificially respired throughout the experiment. Electrocardiograms were also recorded. Respiratory flow was charted on a twin-channel recorder fixed to an SE differential pressure transducer.
(§3) Histamine was administered intravenously at 5 minute intervals. The test drug was administered intravenously 15 seconds prior to histamine in order to inhibit bronchoconstriction.

[5] = tested on: Histamine-Induced Bronchoconstriction; experiment: Inhibition of intravenous histamine-induced bronchoconstriction in the anesthetized guinea pig by inhalational administration; type: in vivo
Protocol: as §1, §2, §3
Details of the procedure of this example are the same as those in preceding Example 2 with the exception that the test compounds were delivered in aerosol form into the trachea of the test aminals.

[6] = listed as 1-decarboxy-1-methylhydroxy-PGE1
[7] = 0.10 μg/ml of stock solution aerosolized
[8] = 1.00 μg/ml of stock solution aerosolized

Compound: CCCCC[C@H](O)/C=C/[C@H]1[C@H](O)CC(=O)[C@@H]1CCCCCCCO [1-Decarboxy-1-Hydroxymethyl-PGE1, 15(S)-1,11α,15α-trihydroxy-9-oxo-13-trans-prostene]
- effect on mobilization of free fatty acids induced by epinephrine [1]: antagonizes mobilization of free fatty acids induced by epinephrine
- Relaxation (×80) (± S.E.) ([2]; 0.001 μg/ml): 24 (18) mm
- Relaxation (×80), 1st Tissue ([2]; 0.01 μg/ml): 30 mm
- Relaxation (×80), 2nd Tissue ([2]; 0.01 μg/ml): 30 mm
- Relaxation (×80) (± S.E.) ([2]; 0.010 μg/ml): 59 (30) mm
- Relaxation (×80), Mean Response ([2]; 0.01 μg/ml): 30 mm
- Relaxation (×80), 1st Tissue ([2]; 0.10 μg/ml): 113 mm
- Relaxation (×80), 2nd Tissue ([2]; 0.10 μg/ml): 93 mm
- Relaxation (×80) (± S.E.) ([2]; 0.100 μg/ml): 79 (21) mm
- Relaxation (×80), Mean Response ([2]; 0.10 μg/ml): 104 mm
- Relaxation (×80), 1st Tissue ([2]; 1.00 μg/ml): 153 mm
- Relaxation (×80), 2nd Tissue ([2]; 1.00 μg/ml): 173 mm
- Relaxation (×80) (± S.E.) ([2]; 1.000 μg/ml): 104 (14) mm
- Relaxation (×80), Mean Response ([2]; 1.00 μg/ml): 163 mm
- Relaxation (×80), 1st Tissue ([2]; 10.00 μg/ml): 146 mm
- Relaxation (×80), 2nd Tissue ([2]; 10.00 μg/ml): 199 mm
- Relaxation (×80) (± S.E.) ([2]; 10.000 μg/ml): 105 (35) mm
- Relaxation (×80), Mean Response ([2]; 10.00 μg/ml): 172 mm
- times more potent than PGE1 in relaxing guinea pig tracheal tissue ([2]; at 0.001 μg/ml, relative to PGE1): 24 times
- comparative effectiveness vs PGE1 in relaxation of tracheal tissue ([2]; equivalent concentrations): clearly more effective at equivalent concentrations
- times more potent than PGE1 in relaxing guinea pig tracheal tissue in vitro ([2]; relative to PGE1, no concentration stated for this clause): 24 times
- Prolongation of Preconvulsion Time ([3]; Expt. 1A, 0.10 μg/ml stock solution aerosolized, P <0.02): 99 s
- Prolongation of Preconvulsion Time ([3]; Expt. 1A, 0.50 μg/ml stock solution aerosolized, P <0.001): 140 s
- Prolongation of Preconvulsion Time ([3]; Expt. 1A, 2.50 μg/ml stock solution aerosolized, P <0.01): 141 s
- Prolongation of Preconvulsion Time ([3]; Expt. 1A, 10.00 μg/ml stock solution aerosolized, P <0.02): 181 s
- Prolongation of Preconvulsion Time ([3]; Expt. 2A, 0.01 μg/ml stock solution aerosolized, P <0.01): 54 s
- Prolongation of Preconvulsion Time ([3]; Expt. 2A, 0.10 μg/ml stock solution aerosolized, P <0.05): 41 s
- Prolongation of Preconvulsion Time ([3]; Expt. 2A, 1.00 μg/ml stock solution aerosolized, P <0.02): 108 s
- Prolongation of Preconvulsion Time ([3]; Expt. 2A, 10.00 μg/ml stock solution aerosolized, P <0.02): 198 s
- Prolongation of Preconvulsion Time ([3]; Expt. 2A, 25.00 μg/ml stock solution aerosolized, P <0.001): 302 s
- Direct Effect, gm tension (Guinea Pig Ileum; 0.1 mcg/ml): 0.0 gm tension
- Direct Effect, gm tension (Guinea Pig Ileum; 1.0 mcg/ml): 0.0 gm tension
- inhibition at 0.1 µg/mL (Guinea Pig Ileum; Cavia porcellus, 100 s, read-out: %-Blockade of Tissue Response to 0.1 mcg/ml of PGE1, 0.1 mcg/ml, 100 seconds of incubation): 38%
- inhibition at 1 µg/mL (Guinea Pig Ileum; Cavia porcellus, 100 s, read-out: %-Blockade of Tissue Response to 0.1 mcg/ml of PGE1, 1.0 mcg/ml, 100 seconds of incubation): 100%
- direct effect on the tissue (Guinea Pig Ileum; at the tested concentrations): no effect on the tissue at the tested concentrations
- antagonism of the effects of PGE1 in the guinea pig ileum (Guinea Pig Ileum): inhibits the effects of PGE1 in guinea pig ileum tissue in vitro
- antagonism of the effects of PGE1 in the guinea pig ileum (Guinea Pig Ileum; [6]): antagonizes the effects of PGE1 in the guinea pig ileum
- effect on platelet aggregation (platelet aggregation): inhibits platelet aggregation
- Incidence of Coughing in a Female (F) Cat (Conscious Cat; [7]): 0/3
- Incidence of Coughing in a Male (M) Cat (Conscious Cat; [7]): 0/3
- Incidence of Coughing in a Female (F) Cat (Conscious Cat; [8]): 1/3
- Incidence of Coughing in a Male (M) Cat (Conscious Cat; [8]): 0/3
- Incidence of Coughing in a Male (M) Cat (Conscious Cat; 10.00 μg/ml of stock solution aerosolized): 0/3
- Incidence of Coughing in a Male (M) Cat (Conscious Cat; 100.00 μg/ml of stock solution aerosolized): 0/2
- tracheobronchial irritancy compared with PGE1 (Conscious Cat): much lower incidence of tracheobronchial irritancy than does PGE1 at equivalent concentrations; also recorded: does not cause tracheal-bronchial irritation at equivalent dosages
- tracheobronchial irritancy compared with PGE1 (Conscious Cat; [6]): less irritating than PGE1
- Ratio of ID50 Values (A/B) ([4]; A = PGE1, B = 1-decarboxy-1-hydroxymethyl-PGE1, Experiment No. 1): 1.14
- Ratio of ID50 Values (A/B) ([4]; A = PGE1, B = 1-decarboxy-1-hydroxymethyl-PGE1, Experiment No. 2): 1.25
- Ratio of ID50 Values (A/B) ([4]; A = PGE1, B = 1-decarboxy-1-hydroxymethyl-PGE1, Experiment No. 3): 1.17
- Ratio of ID50 Values (A/B) ([4]; A = PGE1, B = 1-decarboxy-1-hydroxymethyl-PGE1, Experiment No. 4): 1.14
- Ratio of ID50 Values (A/B) ([4]; A = PGE1, B = 1-decarboxy-1-hydroxymethyl-PGE1, Experiment No. 5): 1.05
- Ratio of ID50 Values (A/B), Mean ([4]; A = PGE1, B = 1-decarboxy-1-hydroxymethyl-PGE1, mean): 1.17
- ED50 ([4]; Experiment No. 1, read-out: Dose I.V. inhibiting bronchoconstriction by 50% (ID50)): 0.529 µg/kg
- ED50 ([4]; Experiment No. 2, read-out: Dose I.V. inhibiting bronchoconstriction by 50% (ID50)): 0.733 µg/kg
- ED50 ([4]; Experiment No. 3, read-out: Dose I.V. inhibiting bronchoconstriction by 50% (ID50)): 0.225 µg/kg
- ED50 ([4]; Experiment No. 4, read-out: Dose I.V. inhibiting bronchoconstriction by 50% (ID50)): 0.756 µg/kg
- ED50 ([4]; Experiment No. 5, read-out: Dose I.V. inhibiting bronchoconstriction by 50% (ID50)): 0.193 µg/kg
- ED50 ([4]; mean of experiments 1-5, read-out: Dose I.V. inhibiting bronchoconstriction by 50% (ID50), Mean): 0.495 µg/kg
- Precent Inhibition of Histamine-Induced Bronchoconstriction ([5]; 0.001 μg/ml in stock solution aerosolized, inhalation): 24%
- times more effective than PGE1 in inhibition of histamine-induced bronchoconstriction ([5]; at 0.001 μg/ml, guinea pig in vivo, relative to PGE1): 4 times
